Assay results taken from ChEMBL document CHEMBL1139881, “A tetrazolyl-substituted subtype-selective AMPA receptor agonist” (J Med Chem, 2007).
pEC50, pIC50, pKi: −log10 of the molar value.

Biological target: not listed separately
Test: Displacement of [3H]AMPA from AMPA receptor in rat synaptosomes
Type: subcellular, Brain
Conditions: not given

First: CC(C)n1nnc(-c2onc(O)c2CC(N)C(=O)O)n1 (stereo not given)
Second: Cn1nnc(-c2onc(O)c2C[C@H](N)C(=O)O)n1
The pIC50 of the first is 2.84 log units lower: 5.21 for the first, 8.05 for the second. The second is the more potent here.

Compared with `CCn1nnc(-c2onc(O)c2CC(N)C(=O)O)n1` (stereo not given), `CCCn1nnc(-c2onc(O)c2CC(N)C(=O)O)n1` (stereo not given) is 1.29 log units lower in pIC50: 6.89 for the first, 5.60 for the second. The first is the more potent here.

Going from `NC(Cc1c(O)noc1-c1nnnn1Cc1ccccc1)C(=O)O` (racemic) to `NC(Cc1c(O)noc1-c1nnn(Cc2ccccc2)n1)C(=O)O` (racemic), the pIC50 rises from < 4.00 to 5.57. The second is the more potent here.

Biological target: Glutamate NMDA receptor
Test: Displacement of [3H]CGP 39653 from NMDA receptor in rat synaptosomes
Type: subcellular, Brain
Conditions: not given

`CC(C)n1nnc(-c2onc(O)c2CC(N)C(=O)O)n1` (stereo not given) and `CCn1nnc(-c2onc(O)c2CC(N)C(=O)O)n1` (stereo not given) cannot be ordered by pKi: < 4.00 for the first, < 4.00 for the second.

First: CCCn1nnc(-c2onc(O)c2CC(N)C(=O)O)n1 (stereo not given)
Second: NC(Cc1c(O)noc1-c1nnn(Cc2ccccc2)n1)C(=O)O (racemic)
The pKi of the first is lower: < 4.00 for the first, 4.06 for the second. The second binds more tightly here.

With `NC(Cc1c(O)noc1-c1nnnn1Cc1ccccc1)C(=O)O` (racemic) the pKi was < 4.00.

System: not listed separately
Test: Agonist activity at GluR2 L483Y mutant expressed in Xenopus laevis oocytes assessed as by effect on glutamate-induced current by two-electrode voltage clamp assay
Type: functional, cell-based
Conditions: Homo sapiens, Oocyte

In the case of `NC(Cc1c(O)noc1-c1nnn(Cc2ccccc2)n1)C(=O)O` (racemic), the pEC50 was 4.02.

Biological target: Glutamate receptor ionotropic, kainate 1 (Rattus norvegicus, UniProt P22756)
Sequence (P22756 whole entry): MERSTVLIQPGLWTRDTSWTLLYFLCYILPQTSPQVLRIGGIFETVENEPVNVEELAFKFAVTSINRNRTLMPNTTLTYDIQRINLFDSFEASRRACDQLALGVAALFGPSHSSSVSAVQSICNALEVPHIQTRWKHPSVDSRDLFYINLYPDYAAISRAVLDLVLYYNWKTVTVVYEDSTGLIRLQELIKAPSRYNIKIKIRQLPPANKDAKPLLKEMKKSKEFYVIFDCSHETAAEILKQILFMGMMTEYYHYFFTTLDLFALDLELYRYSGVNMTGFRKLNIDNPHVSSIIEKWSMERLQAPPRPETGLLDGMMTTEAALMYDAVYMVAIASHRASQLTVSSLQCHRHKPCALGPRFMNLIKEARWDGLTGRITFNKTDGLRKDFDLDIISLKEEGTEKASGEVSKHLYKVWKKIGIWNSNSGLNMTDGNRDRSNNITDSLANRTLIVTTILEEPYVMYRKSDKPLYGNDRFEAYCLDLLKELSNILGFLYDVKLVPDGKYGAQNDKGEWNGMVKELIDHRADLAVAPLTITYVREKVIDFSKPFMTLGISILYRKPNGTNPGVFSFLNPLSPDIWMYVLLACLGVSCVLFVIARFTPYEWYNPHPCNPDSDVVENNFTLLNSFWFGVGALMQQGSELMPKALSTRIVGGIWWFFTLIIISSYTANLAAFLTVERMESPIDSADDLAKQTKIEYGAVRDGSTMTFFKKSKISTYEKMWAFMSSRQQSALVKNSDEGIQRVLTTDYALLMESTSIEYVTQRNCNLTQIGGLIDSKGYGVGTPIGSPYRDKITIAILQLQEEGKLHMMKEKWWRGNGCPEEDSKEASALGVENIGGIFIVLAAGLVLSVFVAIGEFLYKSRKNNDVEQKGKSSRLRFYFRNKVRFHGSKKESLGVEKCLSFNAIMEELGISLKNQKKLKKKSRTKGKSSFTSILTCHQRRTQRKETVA
Test: biochemical
Conditions: not given

First: CC(C)n1nnc(-c2onc(O)c2CC(N)C(=O)O)n1 (stereo not given)
Second: Cn1nnc(-c2onc(O)c2C[C@H](N)C(=O)O)n1
The pKi of the first is 5.58 log units lower: 4.51 for the first, 10.09 for the second. The second binds more tightly here.

First: CCn1nnc(-c2onc(O)c2CC(N)C(=O)O)n1 (stereo not given)
Second: CCCn1nnc(-c2onc(O)c2CC(N)C(=O)O)n1 (stereo not given)
The pKi of the first is 0.28 log units higher: 5.54 for the first, 5.26 for the second.

In the case of `NC(Cc1c(O)noc1-c1nnn(Cc2ccccc2)n1)C(=O)O` (racemic), the pKi was 4.24.

Biological target: not listed separately
Test: Displacement of [3H]KA from kainate receptor in rat synaptosomes
Type: subcellular, Brain
Conditions: not given

First: CC(C)n1nnc(-c2onc(O)c2CC(N)C(=O)O)n1 (stereo not given)
Second: Cn1nnc(-c2onc(O)c2C[C@H](N)C(=O)O)n1
The pIC50 of the first is lower: < 4.00 for the first, 4.96 for the second.

`CCn1nnc(-c2onc(O)c2CC(N)C(=O)O)n1` (stereo not given) and `CCCn1nnc(-c2onc(O)c2CC(N)C(=O)O)n1` (stereo not given) cannot be ordered by pIC50: < 4.00 for the first, < 4.00 for the second.

`NC(Cc1c(O)noc1-c1nnnn1Cc1ccccc1)C(=O)O` (racemic) and `NC(Cc1c(O)noc1-c1nnn(Cc2ccccc2)n1)C(=O)O` (racemic) cannot be ordered by pIC50: < 4.00 for the first, < 4.00 for the second.

In the case of `Cc1onc(O)c1CC(N)C(=O)O` (racemic) [(R,S)-AMPA], the pIC50 was < 4.00.

Biological target: Glutamate receptor 3 (Rattus norvegicus, UniProt P19492)
Sequence (P19492 whole entry): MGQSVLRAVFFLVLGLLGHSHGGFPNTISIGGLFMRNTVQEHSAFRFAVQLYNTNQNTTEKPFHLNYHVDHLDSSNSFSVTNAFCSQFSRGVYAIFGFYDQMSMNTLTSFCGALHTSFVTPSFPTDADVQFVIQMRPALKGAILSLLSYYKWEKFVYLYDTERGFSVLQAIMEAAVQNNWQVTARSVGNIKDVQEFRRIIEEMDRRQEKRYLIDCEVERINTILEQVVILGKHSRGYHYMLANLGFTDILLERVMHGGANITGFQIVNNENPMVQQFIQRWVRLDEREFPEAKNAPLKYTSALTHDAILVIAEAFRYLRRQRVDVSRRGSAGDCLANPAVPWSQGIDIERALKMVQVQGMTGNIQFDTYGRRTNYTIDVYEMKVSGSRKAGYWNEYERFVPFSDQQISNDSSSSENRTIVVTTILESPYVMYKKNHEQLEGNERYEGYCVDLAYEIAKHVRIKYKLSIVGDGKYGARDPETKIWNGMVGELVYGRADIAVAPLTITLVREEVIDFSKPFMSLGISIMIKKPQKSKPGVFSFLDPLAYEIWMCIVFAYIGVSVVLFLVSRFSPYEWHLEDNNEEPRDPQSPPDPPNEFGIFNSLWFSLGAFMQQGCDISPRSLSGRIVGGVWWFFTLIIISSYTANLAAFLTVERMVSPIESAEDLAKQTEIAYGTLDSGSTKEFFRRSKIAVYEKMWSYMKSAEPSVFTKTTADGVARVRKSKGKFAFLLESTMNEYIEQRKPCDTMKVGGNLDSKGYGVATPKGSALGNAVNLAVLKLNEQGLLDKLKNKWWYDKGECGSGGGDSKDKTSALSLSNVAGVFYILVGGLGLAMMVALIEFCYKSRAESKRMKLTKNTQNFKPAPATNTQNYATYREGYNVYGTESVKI
Test: biochemical
Conditions: not given

Going from `CC(C)n1nnc(-c2onc(O)c2CC(N)C(=O)O)n1` (stereo not given) to `CCn1nnc(-c2onc(O)c2CC(N)C(=O)O)n1` (stereo not given), the pKi rises from 5.43 to 7.35 (1.92 log units).

Work on `CCCn1nnc(-c2onc(O)c2CC(N)C(=O)O)n1` (stereo not given) yielded a pKi of 5.92.

System: not listed separately
Test: Activity at ionotropic GluR in rat cortical wedge by electrophysiology assay
Conditions: not given

Compared with `CC(C)n1nnc(-c2onc(O)c2CC(N)C(=O)O)n1` (stereo not given), `CCn1nnc(-c2onc(O)c2CC(N)C(=O)O)n1` (stereo not given) is 1.31 log units higher in pEC50: 4.15 for the first, 5.46 for the second. The second is the more potent here.

`CCCn1nnc(-c2onc(O)c2CC(N)C(=O)O)n1` (stereo not given) and `NC(Cc1c(O)noc1-c1nnn(Cc2ccccc2)n1)C(=O)O` (racemic) are the same in pEC50: 4.49 for the first, 4.49 for the second.

Biological target: Glutamate receptor ionotropic, kainate 2 (Rattus norvegicus, UniProt P42260)
Sequence (P42260 whole entry): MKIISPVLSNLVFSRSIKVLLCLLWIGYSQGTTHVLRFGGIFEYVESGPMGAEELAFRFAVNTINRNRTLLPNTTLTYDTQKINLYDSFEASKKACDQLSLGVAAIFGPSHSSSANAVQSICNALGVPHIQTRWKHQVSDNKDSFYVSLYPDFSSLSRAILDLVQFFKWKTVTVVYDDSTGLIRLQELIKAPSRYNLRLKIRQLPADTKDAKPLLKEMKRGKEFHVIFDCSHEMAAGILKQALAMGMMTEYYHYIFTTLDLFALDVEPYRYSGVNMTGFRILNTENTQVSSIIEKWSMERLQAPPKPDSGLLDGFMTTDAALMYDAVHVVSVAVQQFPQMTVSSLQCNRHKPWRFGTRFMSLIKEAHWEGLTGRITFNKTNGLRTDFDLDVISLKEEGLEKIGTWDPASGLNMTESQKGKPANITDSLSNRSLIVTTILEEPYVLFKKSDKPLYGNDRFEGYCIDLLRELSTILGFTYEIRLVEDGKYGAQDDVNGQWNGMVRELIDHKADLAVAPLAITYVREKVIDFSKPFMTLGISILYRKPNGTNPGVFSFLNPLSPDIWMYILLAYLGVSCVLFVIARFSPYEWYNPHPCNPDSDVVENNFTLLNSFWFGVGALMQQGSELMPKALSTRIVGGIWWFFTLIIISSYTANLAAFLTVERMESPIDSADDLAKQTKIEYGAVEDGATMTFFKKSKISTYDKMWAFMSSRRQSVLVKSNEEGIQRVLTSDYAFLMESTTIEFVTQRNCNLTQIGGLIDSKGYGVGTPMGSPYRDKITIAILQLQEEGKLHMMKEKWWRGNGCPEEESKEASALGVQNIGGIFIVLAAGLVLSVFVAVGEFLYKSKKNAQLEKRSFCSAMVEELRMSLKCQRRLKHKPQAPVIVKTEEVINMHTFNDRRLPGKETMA
Test: Displacement of [3H]KA from rat recombinant GluR6 expressed in Sf9 cells
Conditions: not given

First: CC(C)n1nnc(-c2onc(O)c2CC(N)C(=O)O)n1 (stereo not given)
Second: Cn1nnc(-c2onc(O)c2C[C@H](N)C(=O)O)n1
The pKi of the first is lower: < 4.00 for the first, 4.72 for the second.

`CCn1nnc(-c2onc(O)c2CC(N)C(=O)O)n1` (stereo not given) and `CCCn1nnc(-c2onc(O)c2CC(N)C(=O)O)n1` (stereo not given) cannot be ordered by pKi: < 4.00 for the first, < 4.00 for the second.

Compared with `NC(Cc1c(O)noc1-c1nnn(Cc2ccccc2)n1)C(=O)O` (racemic), `Cc1onc(O)c1CC(N)C(=O)O` (racemic) [(R,S)-AMPA] is lower in pKi: 4.41 for the first, < 3.00 for the second.

Biological target: Glutamate receptor 2 (Rattus norvegicus, UniProt P19491)
Sequence (P19491 whole entry): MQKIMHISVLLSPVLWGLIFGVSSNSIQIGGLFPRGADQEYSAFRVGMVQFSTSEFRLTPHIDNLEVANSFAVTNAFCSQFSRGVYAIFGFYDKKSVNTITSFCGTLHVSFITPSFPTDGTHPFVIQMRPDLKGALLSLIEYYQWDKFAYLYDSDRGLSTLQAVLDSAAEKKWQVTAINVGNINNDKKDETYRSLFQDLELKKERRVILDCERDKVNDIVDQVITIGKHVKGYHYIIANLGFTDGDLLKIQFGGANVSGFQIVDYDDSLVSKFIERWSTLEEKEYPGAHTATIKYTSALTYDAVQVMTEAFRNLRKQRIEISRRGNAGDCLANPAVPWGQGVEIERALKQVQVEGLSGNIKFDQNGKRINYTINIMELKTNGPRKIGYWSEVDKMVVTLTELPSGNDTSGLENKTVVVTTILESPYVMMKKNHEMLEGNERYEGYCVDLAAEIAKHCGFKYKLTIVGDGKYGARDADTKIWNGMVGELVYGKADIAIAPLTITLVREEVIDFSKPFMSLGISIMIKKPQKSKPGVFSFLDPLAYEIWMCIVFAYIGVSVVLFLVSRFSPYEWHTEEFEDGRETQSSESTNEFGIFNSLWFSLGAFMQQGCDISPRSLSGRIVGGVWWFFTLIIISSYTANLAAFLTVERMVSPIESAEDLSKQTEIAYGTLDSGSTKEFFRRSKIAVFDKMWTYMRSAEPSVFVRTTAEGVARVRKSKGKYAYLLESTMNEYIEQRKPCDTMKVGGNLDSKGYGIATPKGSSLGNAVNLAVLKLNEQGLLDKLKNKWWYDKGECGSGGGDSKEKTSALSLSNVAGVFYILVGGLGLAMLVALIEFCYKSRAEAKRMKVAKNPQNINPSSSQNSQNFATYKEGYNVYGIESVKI
Test: biochemical
Conditions: not given

First: CC(C)n1nnc(-c2onc(O)c2CC(N)C(=O)O)n1 (stereo not given)
Second: Cn1nnc(-c2onc(O)c2C[C@H](N)C(=O)O)n1
The pKi of the first is 2.87 log units lower: 5.54 for the first, 8.41 for the second.

Compared with `CCn1nnc(-c2onc(O)c2CC(N)C(=O)O)n1` (stereo not given), `CCCn1nnc(-c2onc(O)c2CC(N)C(=O)O)n1` (stereo not given) is 1.30 log units lower in pKi: 7.10 for the first, 5.80 for the second.

Biological target: Glutamate NMDA receptor
Test: Displacement of [3H][…] from NMDA receptor in rat synaptosomes
Type: subcellular, Brain
Conditions: not given

In the case of `Cn1nnc(-c2onc(O)c2C[C@H](N)C(=O)O)n1`, the pKi was < 4.00.

System: not listed separately
Test: Agonist activity at GluR2 L483Y mutant expressed in Xenopus laevis oocytes assessed as by effect on glutamate-induced current relative to glutamate
Type: functional, Homo sapiens, Oocyte
Conditions: not given

For `NC(Cc1c(O)noc1-c1nnn(Cc2ccccc2)n1)C(=O)O` (racemic), the Activity was 84%.

Biological target: Glutamate receptor 4 (Rattus norvegicus, UniProt P19493)
Test: biochemical
Conditions: not given

Compared with `CC(C)n1nnc(-c2onc(O)c2CC(N)C(=O)O)n1` (stereo not given), `Cn1nnc(-c2onc(O)c2C[C@H](N)C(=O)O)n1` is 2.95 log units higher in pKi: 5.62 for the first, 8.57 for the second.

Going from `CCn1nnc(-c2onc(O)c2CC(N)C(=O)O)n1` (stereo not given) to `CCCn1nnc(-c2onc(O)c2CC(N)C(=O)O)n1` (stereo not given), the pKi falls from 7.36 to 6.14 (1.22 log units). The first binds more tightly here.

Biological target: Glutamate receptor 1 (Rattus norvegicus, UniProt P19490)
Sequence (P19490 whole entry): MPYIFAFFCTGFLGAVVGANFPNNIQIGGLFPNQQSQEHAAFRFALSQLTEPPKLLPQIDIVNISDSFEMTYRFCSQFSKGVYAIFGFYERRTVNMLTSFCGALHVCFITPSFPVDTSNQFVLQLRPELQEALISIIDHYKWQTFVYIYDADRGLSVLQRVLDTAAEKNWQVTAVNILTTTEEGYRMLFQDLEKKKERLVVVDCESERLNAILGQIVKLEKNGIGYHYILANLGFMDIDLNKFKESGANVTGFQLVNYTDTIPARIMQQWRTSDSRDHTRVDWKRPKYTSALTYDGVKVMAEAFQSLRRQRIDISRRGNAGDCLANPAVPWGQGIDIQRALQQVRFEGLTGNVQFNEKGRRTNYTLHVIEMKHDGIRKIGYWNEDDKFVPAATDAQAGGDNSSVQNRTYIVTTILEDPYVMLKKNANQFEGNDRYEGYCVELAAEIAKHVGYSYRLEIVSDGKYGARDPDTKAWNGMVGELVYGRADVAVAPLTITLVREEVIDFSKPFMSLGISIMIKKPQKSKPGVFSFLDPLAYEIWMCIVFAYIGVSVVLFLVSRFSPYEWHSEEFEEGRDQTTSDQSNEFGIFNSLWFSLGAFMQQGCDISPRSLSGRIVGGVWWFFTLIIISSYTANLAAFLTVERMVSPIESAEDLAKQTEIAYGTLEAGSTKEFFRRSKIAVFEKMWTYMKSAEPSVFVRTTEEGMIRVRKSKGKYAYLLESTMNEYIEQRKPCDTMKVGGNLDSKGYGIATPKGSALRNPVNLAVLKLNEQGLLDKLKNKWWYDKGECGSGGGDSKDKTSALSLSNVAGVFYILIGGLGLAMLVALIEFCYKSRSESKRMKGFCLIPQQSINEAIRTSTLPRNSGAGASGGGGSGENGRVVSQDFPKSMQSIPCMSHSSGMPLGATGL
Test: biochemical
Conditions: not given

Going from `CC(C)n1nnc(-c2onc(O)c2CC(N)C(=O)O)n1` (stereo not given) to `CCn1nnc(-c2onc(O)c2CC(N)C(=O)O)n1` (stereo not given), the pKi falls from 8.00 to 6.82 (1.18 log units).

Compound `CCCn1nnc(-c2onc(O)c2CC(N)C(=O)O)n1` (stereo not given) has a pKi of 8.28.
